Source: ChEMBL document CHEMBL5724806, “Unraveling interindividual differences and functional consequences of gut microbial metabolism of immunosuppressants” (2024)

What was measured:
Type in all cases: ADME
[1] = The drug is tested on Bacteroides ovatus strain: ATCC 8483 for biotransformation under anaerobic condition. The drug concentrations were measured over 6 timepoints collected between 0 and 12 hours of incubation by liquid-chromatography-coupled mass spectrometry (LC–MS); design: dose 5 uM, timepoint 0, 1.5, 3, 6, 9, 12 hours; settings: 5 µM
[2] = The drug is tested on the gut metagenome community of T-05 with ENA study accession number: PRJEB31790 for biotransformation under anaerobic condition. The drug concentrations were measured over 7 timepoints collected between 0 and 12 hours of incubation by liquid-chromatography-coupled mass spectrometry (LC–MS); design: dose 5 uM, timepoint 0, 0.75, 1.5, 3, 6, 9, 12 hours; settings: 5 µM
[3] = The drug is tested on the gut metagenome community of A-08 with ENA study accession number: PRJEB31790 for biotransformation under microaerobic condition. The drug concentrations were measured over 7 timepoints collected between 0 and 12 hours of incubation by liquid-chromatography-coupled mass spectrometry (LC–MS); design: dose 5 uM, timepoint 0, 0.75, 1.5, 3, 6, 9, 12 hours; settings: 5 µM
[4] = The drug is tested on Lactobacillus ruminis strain: ATCC25644 for biotransformation under microaerobic condition. The drug concentrations were measured over 6 timepoints collected between 0 and 12 hours of incubation by liquid-chromatography-coupled mass spectrometry (LC–MS); design: dose 5 uM, timepoint 0, 1.5, 3, 6, 9, 12 hours; settings: ligilactobacillus ruminis, 5 µM
[5] = The drug is tested on the gut metagenome community of A-08 with ENA study accession number: PRJEB31790 for biotransformation under anaerobic condition. The drug concentrations were measured over 7 timepoints collected between 0 and 12 hours of incubation by liquid-chromatography-coupled mass spectrometry (LC–MS); design: dose 5 uM, timepoint 0, 0.75, 1.5, 3, 6, 9, 12 hours; settings: 5 µM
[6] = The drug is tested on Eubacterium eligens strain: DSM3376 for biotransformation under anaerobic condition. The drug concentrations were measured over 6 timepoints collected between 0 and 12 hours of incubation by liquid-chromatography-coupled mass spectrometry (LC–MS); design: dose 5 uM, timepoint 0, 1.5, 3, 6, 9, 12 hours; settings: lachnospira eligens, 5 µM
[7] = The drug is tested on Enterococcus faecalis strain: ATCC29212 for biotransformation under microaerobic condition. The drug concentrations were measured over 6 timepoints collected between 0 and 12 hours of incubation by liquid-chromatography-coupled mass spectrometry (LC–MS); design: dose 5 uM, timepoint 0, 1.5, 3, 6, 9, 12 hours; settings: 5 µM
[8] = The drug is tested on Coprococcus comes strain: ATCC27758 for biotransformation under anaerobic condition. The drug concentrations were measured over 6 timepoints collected between 0 and 12 hours of incubation by liquid-chromatography-coupled mass spectrometry (LC–MS); design: dose 5 uM, timepoint 0, 1.5, 3, 6, 9, 12 hours; settings: 5 µM
[9] = The drug is tested on Bacteroides vulgatus strain: DSM1447 for biotransformation under anaerobic condition. The drug concentrations were measured over 6 timepoints collected between 0 and 12 hours of incubation by liquid-chromatography-coupled mass spectrometry (LC–MS); design: dose 5 uM, timepoint 0, 1.5, 3, 6, 9, 12 hours; settings: phocaeicola vulgatus, 5 µM
[10] = The drug is tested on Bacteroides uniformis strain: DSM6597 for biotransformation under anaerobic condition. The drug concentrations were measured over 6 timepoints collected between 0 and 12 hours of incubation by liquid-chromatography-coupled mass spectrometry (LC–MS); design: dose 5 uM, timepoint 0, 1.5, 3, 6, 9, 12 hours; settings: 5 µM
[11] = The drug is tested on the gut metagenome community of P-02 with ENA study accession number: PRJEB31790 for biotransformation under anaerobic condition. The drug concentrations were measured over 7 timepoints collected between 0 and 12 hours of incubation by liquid-chromatography-coupled mass spectrometry (LC–MS); design: dose 5 uM, timepoint 0, 0.75, 1.5, 3, 6, 9, 12 hours; settings: 5 µM
[12] = The drug is tested on Bacteroides fragilis strain: DSM2151 for biotransformation under anaerobic condition. The drug concentrations were measured over 6 timepoints collected between 0 and 12 hours of incubation by liquid-chromatography-coupled mass spectrometry (LC–MS); design: dose 5 uM, timepoint 0, 1.5, 3, 6, 9, 12 hours; settings: 5 µM
[13] = The drug is tested on Lactobacillus ruminis strain: ATCC25644 for biotransformation under anaerobic condition. The drug concentrations were measured over 6 timepoints collected between 0 and 12 hours of incubation by liquid-chromatography-coupled mass spectrometry (LC–MS); design: dose 5 uM, timepoint 0, 1.5, 3, 6, 9, 12 hours; settings: ligilactobacillus ruminis, 5 µM
[14] = The drug is tested on Bifidobacterium longum strain: DSM20088 for biotransformation under anaerobic condition. The drug concentrations were measured over 6 timepoints collected between 0 and 12 hours of incubation by liquid-chromatography-coupled mass spectrometry (LC–MS); design: dose 5 uM, timepoint 0, 1.5, 3, 6, 9, 12 hours; settings: 5 µM
[15] = The drug is tested on the gut metagenome community of T-05 with ENA study accession number: PRJEB31790 for biotransformation under microaerobic condition. The drug concentrations were measured over 7 timepoints collected between 0 and 12 hours of incubation by liquid-chromatography-coupled mass spectrometry (LC–MS); design: dose 5 uM, timepoint 0, 0.75, 1.5, 3, 6, 9, 12 hours; settings: 5 µM
[16] = The drug is tested on Odoribacter splanchnicus strain: DSM20712 for biotransformation under anaerobic condition. The drug concentrations were measured over 6 timepoints collected between 0 and 12 hours of incubation by liquid-chromatography-coupled mass spectrometry (LC–MS); design: dose 5 uM, timepoint 0, 1.5, 3, 6, 9, 12 hours; settings: 5 µM
[17] = The drug is tested on Enterococcus faecalis strain: ATCC29212 for biotransformation under anaerobic condition. The drug concentrations were measured over 6 timepoints collected between 0 and 12 hours of incubation by liquid-chromatography-coupled mass spectrometry (LC–MS); design: dose 5 uM, timepoint 0, 1.5, 3, 6, 9, 12 hours; settings: 5 µM
[18] = The drug is tested on Eubacterium rectale strain: DSM17629 for biotransformation under anaerobic condition. The drug concentrations were measured over 6 timepoints collected between 0 and 12 hours of incubation by liquid-chromatography-coupled mass spectrometry (LC–MS); design: dose 5 uM, timepoint 0, 1.5, 3, 6, 9, 12 hours; settings: agathobacter rectalis, 5 µM
[19] = The drug is tested on the gut metagenome community of A-03 with ENA study accession number: PRJEB31790 for biotransformation under microaerobic condition. The drug concentrations were measured over 7 timepoints collected between 0 and 12 hours of incubation by liquid-chromatography-coupled mass spectrometry (LC–MS); design: dose 5 uM, timepoint 0, 0.75, 1.5, 3, 6, 9, 12 hours; settings: 5 µM
[20] = The drug is tested on Alloscardovia omnicolens strain: DSM21503 for biotransformation under microaerobic condition. The drug concentrations were measured over 6 timepoints collected between 0 and 12 hours of incubation by liquid-chromatography-coupled mass spectrometry (LC–MS); design: dose 5 uM, timepoint 0, 1.5, 3, 6, 9, 12 hours; settings: 5 µM
[21] = The drug is tested on Eubacterium hallii strain: DSM3353 for biotransformation under anaerobic condition. The drug concentrations were measured over 6 timepoints collected between 0 and 12 hours of incubation by liquid-chromatography-coupled mass spectrometry (LC–MS); design: dose 5 uM, timepoint 0, 1.5, 3, 6, 9, 12 hours; settings: anaerobutyricum hallii, 5 µM
[22] = The drug is tested on the gut metagenome community of A-06 with ENA study accession number: PRJEB31790 for biotransformation under microaerobic condition. The drug concentrations were measured over 7 timepoints collected between 0 and 12 hours of incubation by liquid-chromatography-coupled mass spectrometry (LC–MS); design: dose 5 uM, timepoint 0, 0.75, 1.5, 3, 6, 9, 12 hours; settings: 5 µM
[23] = The drug is tested on the gut metagenome community of P-03 with ENA study accession number: PRJEB31790 for biotransformation under anaerobic condition. The drug concentrations were measured over 7 timepoints collected between 0 and 12 hours of incubation by liquid-chromatography-coupled mass spectrometry (LC–MS); design: dose 5 uM, timepoint 0, 0.75, 1.5, 3, 6, 9, 12 hours; settings: 5 µM
[24] = The drug is tested on Alloscardovia omnicolens strain: DSM21503 for biotransformation under anaerobic condition. The drug concentrations were measured over 6 timepoints collected between 0 and 12 hours of incubation by liquid-chromatography-coupled mass spectrometry (LC–MS); design: dose 5 uM, timepoint 0, 1.5, 3, 6, 9, 12 hours; settings: 5 µM

C=CC[C@@H]1/C=C(\C)C[C@H](C)C[C@H](OC)[C@H]2O[C@@](O)(C(=O)C(=O)N3CCCC[C@H]3C(=O)O[C@H](/C(C)=C/[C@@H]3CC[C@@H](O)[C@H](OC)C3)[C@H](C)[C@@H](O)CC1=O)[C@H](C)C[C@@H]2OC.O [TACROLIMUS]
Bacterial Biotransformation [1]: Compound NOT metabolized
Bacterial Biotransformation [2]: Compound NOT metabolized
Bacterial Biotransformation [3]: Compound metabolized
Bacterial Biotransformation [4]: Compound NOT metabolized
Bacterial Biotransformation [5]: Compound metabolized
Bacterial Biotransformation [6]: Compound NOT metabolized
Bacterial Biotransformation [7]: Compound NOT metabolized
Bacterial Biotransformation [8]: Compound metabolized
Bacterial Biotransformation [9]: Compound NOT metabolized
Bacterial Biotransformation [10]: Compound metabolized
Bacterial Biotransformation [11]: Compound NOT metabolized
Bacterial Biotransformation [12]: Compound NOT metabolized
Bacterial Biotransformation [13]: Compound NOT metabolized
Bacterial Biotransformation [14]: Compound NOT metabolized
Bacterial Biotransformation [15]: Compound metabolized
Bacterial Biotransformation [16]: Compound NOT metabolized
Bacterial Biotransformation [17]: Compound metabolized
Bacterial Biotransformation [18]: Compound NOT metabolized
Bacterial Biotransformation [19]: Compound metabolized
Bacterial Biotransformation [20]: Compound NOT metabolized
Bacterial Biotransformation [21]: Compound metabolized
Bacterial Biotransformation [22]: Compound metabolized
Bacterial Biotransformation [23]: Compound NOT metabolized
Bacterial Biotransformation [24]: Compound NOT metabolized
